For assay [1], the target named is T1, Neuropeptide Y receptor type 1 (Homo sapiens, UniProt P25929).
T1 sequence (P25929 whole entry): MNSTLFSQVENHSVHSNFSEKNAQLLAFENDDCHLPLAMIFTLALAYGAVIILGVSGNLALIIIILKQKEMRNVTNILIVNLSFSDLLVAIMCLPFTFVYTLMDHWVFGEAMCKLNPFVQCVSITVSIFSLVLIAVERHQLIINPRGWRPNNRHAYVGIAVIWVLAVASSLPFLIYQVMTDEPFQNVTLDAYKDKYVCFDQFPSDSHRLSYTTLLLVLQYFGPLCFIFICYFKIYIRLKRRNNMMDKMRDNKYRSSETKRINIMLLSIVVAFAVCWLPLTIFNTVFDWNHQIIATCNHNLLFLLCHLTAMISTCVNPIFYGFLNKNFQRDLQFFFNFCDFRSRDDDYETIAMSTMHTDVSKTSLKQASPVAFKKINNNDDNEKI
The experiment in a line: Fluorescence-based counterscreen for agonists of NPY-Y2: cell-based high-throughput dose response assay for agonists of NPY-Y1. It is filed as functional.

The subject of another assay is HEK293. The experiment in a line: Fluorescence-based counterscreen for potentiators or agonists of NPY-Y2: cell-based high-throughput dose response assay to identify inhibitors of cyclic nucleotide gated ion channel (CNGC) activity. In this assay, the parental HEK293 cell line transfected with a cyclic-nucleotide gated ion channel (CNGC)-based cAMP sensor is used to measure inhibition of isoproterenol-induced CNGC activity by test compound. It is filed as functional. The settings on record: Homo sapiens. (Counterscreens check selectivity or assay interference.)

In assay [2] the target is T2, Neuropeptide Y receptor type 2 (Homo sapiens, UniProt P49146).
T2 sequence (P49146 whole entry): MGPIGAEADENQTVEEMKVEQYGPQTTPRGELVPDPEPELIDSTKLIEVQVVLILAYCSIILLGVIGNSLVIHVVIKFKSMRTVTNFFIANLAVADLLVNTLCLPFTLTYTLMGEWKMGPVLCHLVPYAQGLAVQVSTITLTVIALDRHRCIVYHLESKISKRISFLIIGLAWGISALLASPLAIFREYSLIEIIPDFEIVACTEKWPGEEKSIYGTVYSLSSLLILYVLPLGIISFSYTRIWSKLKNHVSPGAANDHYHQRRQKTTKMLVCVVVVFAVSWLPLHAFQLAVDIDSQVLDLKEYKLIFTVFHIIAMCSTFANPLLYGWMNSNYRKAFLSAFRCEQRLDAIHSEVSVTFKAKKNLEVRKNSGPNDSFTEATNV
The experiment in a line: Fluorescence-based cell-based high-throughput dose response assay for agonists of NPY-Y2. [Related pubchem assays: 1703 (Screening assay (CNGC inhibitors).), 1359 (Screening assay (NPY-Y2 potentiators or agonists).), 1304 (Screening assay (NPY-Y1 potentiators or agonists).), 1710 (Screening assay (NPY-Y2 agonists).), 1791 (Summary AID.)]. It is filed as functional.

Another assay deals with INS1. In words: beta cell apoptosis inhibitors, cytokine rescue, dose response, luminescence, retest (AID 449756).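 Further: cell death triggered by IL-1 beta plus TNF-alpha plus IFN-gamma mixture; protective hits raise ATP signal compared with cytokine alone wells.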 It is filed as functional, cell-based. As to conditions: Rattus norvegicus.
The nature of assay [3]: cytotoxicity toward NIH3T3 fibroblasts, dose response, counter-screen, cell-based, ATP luminescence, mouse fibroblasts (AID 2010).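 Further: cells exposed to compound for about 90 hours before reading.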 It is filed as functional.
The target in assay [4] is T3, Replicative DNA helicase DnaB (Mycobacterium tuberculosis, UniProt P9WMR3).
T3 sequence (P9WMR3 whole entry): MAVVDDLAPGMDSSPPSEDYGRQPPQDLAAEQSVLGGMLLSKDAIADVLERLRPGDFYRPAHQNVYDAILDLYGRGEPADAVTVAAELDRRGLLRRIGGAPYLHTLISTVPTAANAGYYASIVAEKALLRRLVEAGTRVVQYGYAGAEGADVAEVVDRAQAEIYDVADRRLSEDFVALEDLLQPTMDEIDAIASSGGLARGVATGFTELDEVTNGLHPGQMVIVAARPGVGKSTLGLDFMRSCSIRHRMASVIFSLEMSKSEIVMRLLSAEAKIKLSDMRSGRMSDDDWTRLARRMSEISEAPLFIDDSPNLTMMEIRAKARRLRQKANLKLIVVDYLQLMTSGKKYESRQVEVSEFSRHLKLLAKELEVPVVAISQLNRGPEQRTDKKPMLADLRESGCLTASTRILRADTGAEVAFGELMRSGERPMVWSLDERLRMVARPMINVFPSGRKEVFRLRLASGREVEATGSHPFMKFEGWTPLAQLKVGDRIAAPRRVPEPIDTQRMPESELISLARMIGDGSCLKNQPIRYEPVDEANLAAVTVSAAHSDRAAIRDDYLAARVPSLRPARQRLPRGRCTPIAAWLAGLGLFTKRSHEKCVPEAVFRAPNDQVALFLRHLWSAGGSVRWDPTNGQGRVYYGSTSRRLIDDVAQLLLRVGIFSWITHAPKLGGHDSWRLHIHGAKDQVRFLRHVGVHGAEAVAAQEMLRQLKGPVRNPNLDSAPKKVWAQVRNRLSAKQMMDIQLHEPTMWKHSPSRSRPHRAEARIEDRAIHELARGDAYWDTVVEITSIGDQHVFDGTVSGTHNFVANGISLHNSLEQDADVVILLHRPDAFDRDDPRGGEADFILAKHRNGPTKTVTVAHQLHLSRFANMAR
In words: DnaB intein splicing inhibitors, dose response, biochemical, cell-free fluorescence (AID 449749). It is filed as functional.

Assay [5] is described as follows: inhibitors of intracellular T. cruzi replication, confirmation, NIH3T3 host cells, beta-gal luminescence (AID 2044).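 Further: intracellular parasites grown in NIH/3T3 mouse fibroblasts as host cells; luminescent beta-galactosidase reporter signal from transgenic T. cruzi replicating inside host cells; inhibitors lower the luminescence signal.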 The format is functional, cell-based.
Assay [6] has as its target Sphingosine 1-phosphate receptor 2 (Homo sapiens, UniProt O95136). The experiment in a line: Dose Response Cell Based Assay for Antagonists of the S1P2 Receptor. [Related pubchem assays: 856, 736 ]. It is filed as functional.
A further assay concerns the target T4, Protein RecA (Mycobacterium tuberculosis, UniProt P9WHJ3).
T4 sequence (P9WHJ3 whole entry): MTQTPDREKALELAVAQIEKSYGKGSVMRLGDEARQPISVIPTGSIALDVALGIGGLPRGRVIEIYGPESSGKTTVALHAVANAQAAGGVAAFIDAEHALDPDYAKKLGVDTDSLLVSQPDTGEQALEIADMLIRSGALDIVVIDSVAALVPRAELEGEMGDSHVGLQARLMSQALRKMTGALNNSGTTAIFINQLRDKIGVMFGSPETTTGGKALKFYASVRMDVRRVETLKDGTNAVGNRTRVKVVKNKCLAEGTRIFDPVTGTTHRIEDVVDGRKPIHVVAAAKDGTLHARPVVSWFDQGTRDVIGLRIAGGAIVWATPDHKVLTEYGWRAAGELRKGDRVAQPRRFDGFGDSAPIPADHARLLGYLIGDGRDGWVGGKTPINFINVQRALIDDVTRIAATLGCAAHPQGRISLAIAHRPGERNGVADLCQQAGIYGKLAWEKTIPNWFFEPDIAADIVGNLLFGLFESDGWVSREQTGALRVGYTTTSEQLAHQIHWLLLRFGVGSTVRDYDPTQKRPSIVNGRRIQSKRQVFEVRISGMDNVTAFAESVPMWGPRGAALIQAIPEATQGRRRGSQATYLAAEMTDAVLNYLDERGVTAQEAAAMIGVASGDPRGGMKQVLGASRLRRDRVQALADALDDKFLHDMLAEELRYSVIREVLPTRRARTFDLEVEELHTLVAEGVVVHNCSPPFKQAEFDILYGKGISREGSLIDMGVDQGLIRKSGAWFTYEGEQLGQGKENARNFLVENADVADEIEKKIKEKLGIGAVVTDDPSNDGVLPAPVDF
The experiment in a line: Fluorescence Cell-Free Homogeneous Dose Retest to Identify Inhibitors of RecA-Intein Splicing Activity. [Related pubchem assays (depositor defined):AID2097, AID2223, AID489010, AID492950]. It is filed as functional.

Assay [7] can be described thus: C. albicans growth with fluconazole, confirmation, fluorescence, retest (AID 2467). The format is functional, cell-based.
The next assay deals with HeLa. The experiment in a line: Cytotoxicity counterscreen assay for transcriptional activators of heat shock protein 70 (Hsp70). [Related pubchem assays: 1203, 1252 ]. As to conditions: Homo sapiens. The format is functional.
The nature of assay [8]: Luminescent dose response cell-based high throughput screening assay for inhibitors of the Janus kinase 2 mutant JAK2V617F. [Related pubchem assays: 1446 (Primary screen.), 1521 (Confirmation assay.), 1486 (Counter screen.)]. The format is functional.
Assay [9] can be described thus: NIH-3T3 fibroblast cytotoxicity, dose response, cytotoxicity control, cell-based, fluorescence, Alamar Blue, secondary assay (AID 2327).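 Further: NIH-3T3 mouse fibroblasts cultured with fluconazole at 8 µg/mL.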 It is filed as functional.

Structures are written as SMILES. Active and inactive are the calls of the source.
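Wherever CC50 is given: cells exposed to compound for 16 hours before readout.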

Sequence of Sphingosine 1-phosphate receptor 2 (O95136 whole entry): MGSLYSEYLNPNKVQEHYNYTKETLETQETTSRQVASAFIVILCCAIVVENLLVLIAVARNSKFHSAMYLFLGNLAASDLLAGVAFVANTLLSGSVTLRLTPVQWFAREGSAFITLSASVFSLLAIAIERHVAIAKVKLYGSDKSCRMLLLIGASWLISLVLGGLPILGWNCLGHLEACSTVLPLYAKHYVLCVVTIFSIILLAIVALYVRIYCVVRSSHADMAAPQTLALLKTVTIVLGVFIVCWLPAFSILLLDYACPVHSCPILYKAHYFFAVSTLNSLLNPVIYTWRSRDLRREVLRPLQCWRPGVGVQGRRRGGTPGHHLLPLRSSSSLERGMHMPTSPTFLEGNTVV

On to `COc1ccc(N2CCN(CC(O)COc3ccccc3[N+](=O)[O-])CC2)cc1` (stereo not drawn), for which the values for the EC50 (in assay [1]; in the assay on HEK293; in assay [2]) were 9.49 µM (active), 2.43 µM (active) and 12.3 µM (not active), respectively.

In the case of `O=C(OCn1ncc(Cl)c(Cl)c1=O)c1ccc(F)cc1`, the AC50 with INS1 was 7.34 µM (active); in assay [4] it was 5.07 µM (active). For the same molecule, the EC50 was 1.04 µM (active) in assay [3]; 1.16 µM (active) in assay [5]; 0.938 µM (active) on Protein RecA; > 38 µM (not active) in [7]; 1.85 µM (inconclusive) in [9]. For the same molecule, the IC50 in assay [6] was 3.76 µM (active); in assay [8], 0.351 µM (active). Further, in the assay on HeLa, the CC50 is listed as 21.7 µM (not active).

As a reminder, the EC50 is the concentration at which the effect is half-maximal. Broadly, the AC50 is the midpoint of the concentration-response curve, whichever way the signal moves. As a reminder, the IC50 is the concentration that inhibits the measured activity by half. Broadly, the CC50 is the concentration at which the toxic effect on the cells reaches its halfway point.

These data come from ChEMBL document CHEMBL1201862, “PubChem BioAssay data set” (2004).
